Tests used:
[1] = tested on: GLP-1R^pos and GLP-1R^neg CD3^+ T cells; test: Proliferation, apoptosis and IFN-γ expression of GLP-1Rpos and GLP-1Rneg CD3+ T cells stimulated with anti-CD3/anti-CD28; type: cell-based, C57BL/6 mice; details: for proliferation rate: anti-CD3/anti-CD28
Protocol: FACS analysis was performed with a FACSCelesta (BD Bioscience) on murine splenocytes or on single cells suspension prepared upon collagenase-digestion of grafted organs. We used the following antibodies: APC conjugated Rat anti-mouse CD62L, PE conjugated Rat anti-mouse CD44, PerCp conjugated Rat anti-mouse CD4 or PerCp conjugated Rat anti-mouse CD8, (Biolegend, San Diego, CA, USA), and APC conjugated anti-mouse/human insulin (R&D, Minneapolis, MN - USA). GLP-1R was detected by indirect staining; the primary antibody was purchased from Alomone Lab (Jerusalem, Israel) and variably associated with FITC or APC-conjugated anti-isotype Ab (BD and Biolegend respectively). For intracellular staining, splenocytes were isolated from BL6 mice were incubated with and w/o anti CD3/CD28 used both at 0.5 µg/ml, Exe-4 (0.1nM, 1nM and 10nM) or with Exe-4+Exe-9-39 (0.1nM, 1nM and 10nM). After 24hours incubation, cells were collected, washed and plated in RPMI 10% FBS, then stimulated with 50 ng/ml PMA (Sigma Aldrich), 500 ng/ml ionomycin (Sigma Aldrich) and Golgi Stop as recommended by the manufacturer (BD Biosciences, San Diego, CA, USA) for 4h in a humidified incubator 37°C, 5% CO2. After incubation, cells were collected, washed and stained for surface markers, i.e CD4 BUV737, CD8 BUV395, (BD Biosciences, San Diego, CA, USA) and GLP-1R FITC (Alomone Lab, Jerusalem, Israel). They were further fixed, permeabilized using the BD Cytofix/Cytoperm Kit (BD Biosciences, San Diego, CA, USA), and stained with a mAb against IFN-γ (eBioscience). Finally, CD4^+ GLP-1R^+ IFN-γ^+ and CD8^+ GLP-1R^+ IFN-γ ^+ T cells were assessed by flow cytometry analysis. For the expression of GLP-1R on innate immune cells, the following antibodies were used: CD4 BB700, NK1.1 BV421, CD127 BV605, CD44 PE, GLP-1R FITC/PD1 FITC, Viability Dye BV510 (NKT subset); CD45 BV786, CD3 BB700, NK1.1 BV421, GLP-1R FITC/PD1 FITC, Viability Dye BV510 (NK subset); CD45 BB700, CD11c BV786, CD11b BV421, GLP-1R FITC/PD1 FITC, Viability Dye BV510; CD45 PE-CF594, CD127 BV605, NK1.1 BV421, CD335 BV786, CD49a BV650, CD117 BB700, IL33R PE, IL23R BV711, GLP-1R FITC/PD1 FITC, Viability Dye BV510 (LCs subset). For the determination of the chemokine receptors profile of GLP-1R^+ CD3^+ T cells, the following antibodies were used: GLP-1R FITC, CXCR4 PE, CX3CR1 BV605, CCR2 BV421, CCR5 BV650, CCR7 BV786, CXCR3 BB700, CXCR6 BV711, Viability Dye BV510.

[2] = tested on: GLP-1R^pos and GLP-1R^neg CD3^+ T cells; test: Seahorse bioenergetic analysis, GLP-1Rpos and GLP-1Rneg CD3+ T cells; type: cell-based, C57BL/6 mice; details: GLP-1R^pos CD3^+ T cells, Exe-4 (1 nM)
Protocol: Cellular Bioenergetics were analyzed using the Seahorse Extracellular Flux Analyzer Xfe96 (Agilent Technologies, Santa Clara, CA, United States), which simultaneously measures Oxygen Consumption Rate (OCR, pmolO2/min), ExtraCellular Acidification Rate (ECAR, mpH/min) and Proton Efflux Rate (PER, pmolH^+/min). For Seahorse experiments 150.000 cells either freshly isolated GLP-1R^pos or GLP-1R^neg CD3^+ T cells or activated with soluble anti-CD3/CD28 at 0.5 µg/ml each in the presence or not of Exe-4 (1 nM); in another setting untransduced mock CD3^+ T cells or pmY-GLP-1R CD3^+ T cells already activated with soluble anti-CD3/CD28 at 0.5 µg/ml each in the presence or not of Exe-4 (1 nM). Cells were resuspended in 50 µL assay medium (Agilent #103576-100 RPMI Medium pH7.4, supplemented with 10mM glucose, 2mM glutamine and 1mM Na-pyruvate) were seeded in each CellTak-precoated well of an Agilent Xfe96 Pro well plate. The cell plate was centrifuged 2 times at 40 × g (zero braking) for 1 minute. After centrifugation, 150 µL warm assay medium was gently added to each well. […]
Seahorse parameters were normalized to cell number in each well. To this purpose, at the end of the Seahorse analysis, cell nuclei were stained with Hoechst 33342 (1 µg/mL) for about 15 min, imaged and counted with Operetta CLS™ software Harmony, as previously described (43). […]

## Exendin-4 [Exe-4]
[1]; GLP-1R^neg CD3^+ T cells, Exe-4 (1 nM)
  proliferation rate: but not of GLP-1R^neg CD3^+ T cells
[1]; GLP-1R^pos CD3^+ T cells, Exe-4 (1 nM)
  proliferation rate: slightly modulated
[1]; GLP-1R^pos and GLP-1R^neg CD3^+ T cells, Exe-4 (1 nM)
  IFN-y expression: no evident effect
[1]; GLP-1R^pos vs GLP-1R^neg CD3^+ T cells, with or without Exe-4
  apoptosis (GLP-1R^pos more apoptotic than GLP-1R^neg): independently of Exe-4 treatment
[2]
  mitochondrial ATP production: no effect
  mitochondrial respiration (OCR values, maximal OXPHOS): slightly increased

From patent EP4623928A1, “GLP-1R ANTAGONISTS FOR THE TREATMENT OF CANCER” (Fiorina, Paolo, priority 2024, dated 2025)
